Measurements as given in patent US20230365592A1 (Agios Pharmaceuticals, Inc., priority 2022, published 2023).

target: T1, human PAH with the R408W mutation (Homo sapiens, UniProt P00439, R408W); assay: Cell Based Phenylalanine Flux Assay; conditions: A375 cells expressing human R408W PAH; 24 hrs compound incubation; 13C-Tyrosine by LC-MS; average where tested multiple times; read-out: AC50;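 also: after compound treatment, cells received sepiapterin plus isotope-labelled Phenylalanine for 4 hours, then labelled Tyrosine in the medium was quantified, 10-point 2-fold dilution series run in duplicate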
T1 construct: expressed in transfected cells
T1 sequence (P00439 1-452 R408W): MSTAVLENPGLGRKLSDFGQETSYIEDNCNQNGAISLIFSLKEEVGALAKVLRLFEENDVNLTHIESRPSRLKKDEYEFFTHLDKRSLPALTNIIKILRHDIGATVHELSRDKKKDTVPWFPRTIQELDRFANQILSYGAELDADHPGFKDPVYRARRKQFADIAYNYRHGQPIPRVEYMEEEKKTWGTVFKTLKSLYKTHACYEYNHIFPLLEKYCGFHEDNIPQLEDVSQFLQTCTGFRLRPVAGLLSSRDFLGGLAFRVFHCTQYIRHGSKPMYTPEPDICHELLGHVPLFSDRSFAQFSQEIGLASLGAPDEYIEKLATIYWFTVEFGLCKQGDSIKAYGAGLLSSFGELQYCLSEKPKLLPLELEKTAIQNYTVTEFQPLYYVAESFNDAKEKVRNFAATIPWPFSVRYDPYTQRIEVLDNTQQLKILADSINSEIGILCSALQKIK

| SMILES | AC50 [nM] |
| --- | --- |
| O=C(c1nnc(-c2ncccn2)o1)N1CCc2[nH]cnc2[C@H]1c1cc2cccc(Cl)n2n1 [Example 1393, (S)-(4-(7-chloropyrazolo[1,5-a]pyridin-2-yl)-6,7-dihydro-1H-imidazo[4,5-c]pyridin-5(4H)-yl)(5-(pyrimidin-2-yl)-1,3,4-oxadiazol-2-yl)methanone] | < 500 |
| Cc1cccc(-c2nnc(C(=O)N3CCc4[nH]cnc4[C@H]3c3cc4cccc(Cl)n4n3)o2)n1 [Example 1396, (S)-(4-(7-chloropyrazolo[1,5-a]pyridin-2-yl)-6,7-dihydro-1H-imidazo[4,5-c]pyridin-5(4H)-yl)(5-(6-methylpyridin-2-yl)-1,3,4-oxadiazol-2-yl)methanone] | < 500 |
| Cc1cccc(-c2nnc(C(=O)N3CCc4[nH]cnc4[C@@H]3c3cc4cccc(Cl)n4n3)o2)n1 [Example 1397, (R)-(4-(7-chloropyrazolo[1,5-a]pyridin-2-yl)-6,7-dihydro-1H-imidazo[4,5-c]pyridin-5(4H)-yl)(5-(6-methylpyridin-2-yl)-1,3,4-oxadiazol-2-yl)methanone] | 1000 to 5000 |
| Cc1cccc(-c2nnc(C(=O)N3CCc4[nH]cnc4[C@@H]3c3cc4cccc(C)n4n3)o2)n1 [Example 1399, (R)-(4-(7-methylpyrazolo[1,5-a]pyridin-2-yl)-6,7-dihydro-1H-imidazo[4,5-c]pyridin-5(4H)-yl)(5-(6-methylpyridin-2-yl)-1,3,4-oxadiazol-2-yl)methanone] | 1000 to 5000 |
| Cc1cccc(-c2nnc(C(=O)N3CCc4[nH]cnc4[C@H]3c3cc4cccc(C(F)(F)F)n4n3)o2)n1 [Example 1400, (S)-(5-(6-methylpyridin-2-yl)-1,3,4-oxadiazol-2-yl)(4-(7-(trifluoromethyl)pyrazolo[1,5-a]pyridin-2-yl)-6,7-dihydro-1H-imidazo[4,5-c]pyridin-5(4H)-yl)methanone] | < 500 |
| Cc1cccc(-c2nnc(C(=O)N3CCc4[nH]cnc4[C@@H]3c3cc4cccc(C(F)(F)F)n4n3)o2)n1 [Example 1401, (R)-(5-(6-methylpyridin-2-yl)-1,3,4-oxadiazol-2-yl)(4-(7-(trifluoromethyl)pyrazolo[1,5-a]pyridin-2-yl)-6,7-dihydro-1H-imidazo[4,5-c]pyridin-5(4H)-yl)methanone] | 1000 to 5000 |
| Cn1nc(C(F)F)cc1C(=O)N1CCc2[nH]cnc2[C@H]1c1cc2cccc(C(F)F)n2n1 [Example 1402, (S)-(3-(difluoromethyl)-1-methyl-1H-pyrazol-5-yl)(4-(7-(difluoromethyl)pyrazolo[1,5-a]pyridin-2-yl)-6,7-dihydro-1H-imidazo[4,5-c]pyridin-5(4H)-yl)methanone] | 500 to 1000 |
| O=C(c1nnc(-c2ccn(C(F)F)n2)o1)N1CCc2[nH]cnc2[C@@H]1c1cc2cccc(F)n2n1 [Example 1404, (R)-(5-(1-(difluoromethyl)-1H-pyrazol-3-yl)-1,3,4-oxadiazol-2-yl)(4-(7-fluoropyrazolo[1,5-a]pyridin-2-yl)-6,7-dihydro-1H-imidazo[4,5-c]pyridin-5(4H)-yl)methanone] | 1000 to 5000 |
| O=C(c1nnc(-c2ccn(C(F)F)n2)o1)N1CCc2[nH]cnc2[C@H]1c1cc2cccc(F)n2n1 [Example 1405, (S)-(5-(1-(difluoromethyl)-1H-pyrazol-3-yl)-1,3,4-oxadiazol-2-yl)(4-(7-fluoropyrazolo[1,5-a]pyridin-2-yl)-6,7-dihydro-1H-imidazo[4,5-c]pyridin-5(4H)-yl)methanone] | < 500 |
| Cn1cc(-c2nnc(C(=O)N3CCc4[nH]cnc4[C@@H]3c3cc4cccc(C(F)F)n4n3)o2)cn1 [Example 1407, (R)-(4-(7-(difluoromethyl)pyrazolo[1,5-a]pyridin-2-yl)-6,7-dihydro-1H-imidazo[4,5-c]pyridin-5(4H)-yl)(5-(1-methyl-1H-pyrazol-4-yl)-1,3,4-oxadiazol-2-yl)methanone] | > 5000 |
| CC(C)(C)c1nnc(C(=O)N2CCc3[nH]cnc3[C@@H]2c2cc3c(C(F)F)cccn3n2)o1 [Example 1408, (R)-(5-(tert-butyl)-1,3,4-oxadiazol-2-yl)(4-(4-(difluoromethyl)pyrazolo[1,5-a]pyridin-2-yl)-6,7-dihydro-1H-imidazo[4,5-c]pyridin-5(4H)-yl)methanone] | 1000 to 5000 |
| CC(C)(C)c1nnc(C(=O)N2CCc3[nH]cnc3[C@H]2c2cc3c(C(F)F)cccn3n2)o1 [Example 1409, (S)-(5-(tert-butyl)-1,3,4-oxadiazol-2-yl)(4-(4-(difluoromethyl)pyrazolo[1,5-a]pyridin-2-yl)-6,7-dihydro-1H-imidazo[4,5-c]pyridin-5(4H)-yl)methanone] | < 500 |
| O=C(c1cnn2cc(-c3ccccn3)ccc12)N1CCc2[nH]cnc2[C@@H]1c1cc2ccccn2n1 [Example 1417, (R)-(4-(pyrazolo[1,5-a]pyridin-2-yl)-6,7-dihydro-1H-imidazo[4,5-c]pyridin-5(4H)-yl)(6-(pyridin-2-yl)pyrazolo[1,5-a]pyridin-3-yl)methanone] | 1000 to 5000 |
| CC(C)(C)c1nnc(C(=O)N2CCc3[nH]cnc3[C@@H]2c2cc3cccc(C(F)F)n3n2)o1 [Example 1418, (R)-(5-(tert-butyl)-1,3,4-oxadiazol-2-yl)(4-(7-(difluoromethyl)pyrazolo[1,5-a]pyridin-2-yl)-6,7-dihydro-1H-imidazo[4,5-c]pyridin-5(4H)-yl)methanone] | 1000 to 5000 |
| O=C(c1nnc(-c2ccccn2)o1)N1CCc2[nH]cnc2[C@H]1c1cc2cccc(C(F)F)n2n1 [Example 1421, (S)-(4-(7-(difluoromethyl)pyrazolo[1,5-a]pyridin-2-yl)-6,7-dihydro-1H-imidazo[4,5-c]pyridin-5(4H)-yl)(5-(pyridin-2-yl)-1,3,4-oxadiazol-2-yl)methanone] | < 500 |
| Cc1cccc(-c2nnc(C(=O)N3CCc4[nH]cnc4[C@@H]3c3cc4c(Cl)cccn4n3)o2)n1 [Example 1430, (R)-(4-(4-chloropyrazolo[1,5-a]pyridin-2-yl)-6,7-dihydro-1H-imidazo[4,5-c]pyridin-5(4H)-yl)(5-(6-methylpyridin-2-yl)-1,3,4-oxadiazol-2-yl)methanone] | > 5000 |

Second part, the compound after the results:

| AC50 [nM] | SMILES |
| --- | --- |
| < 500 | Cc1ncccc1-c1nnc(C(=O)N2CCc3[nH]cnc3[C@H]2c2cc3c(C(F)F)cccn3n2)o1 [Example 1394, (S)-(4-(4-(difluoromethyl)pyrazolo[1,5-a]pyridin-2-yl)-6,7-dihydro-1H-imidazo[4,5-c]pyridin-5(4H)-yl)(5-(2-methylpyridin-3-yl)-1,3,4-oxadiazol-2-yl)methanone] |
| > 5000 | Cc1ncccc1-c1nnc(C(=O)N2CCc3[nH]cnc3[C@@H]2c2cc3c(C(F)F)cccn3n2)o1 [Example 1395, (R)-(4-(4-(difluoromethyl)pyrazolo[1,5-a]pyridin-2-yl)-6,7-dihydro-1H-imidazo[4,5-c]pyridin-5(4H)-yl)(5-(2-methylpyridin-3-yl)-1,3,4-oxadiazol-2-yl)methanone] |
| 1000 to 5000 | O=C(c1nnc(-c2ncccn2)o1)N1CCc2[nH]cnc2[C@@H]1c1cc2c(Cl)cccn2n1 [Example 1410, (R)-(4-(4-chloropyrazolo[1,5-a]pyridin-2-yl)-6,7-dihydro-1H-imidazo[4,5-c]pyridin-5(4H)-yl)(5-(pyrimidin-2-yl)-1,3,4-oxadiazol-2-yl)methanone] |
| < 500 | O=C(c1nnc(-c2ncccn2)o1)N1CCc2[nH]cnc2[C@H]1c1cc2c(Cl)cccn2n1 [Example 1411, (S)-(4-(4-chloropyrazolo[1,5-a]pyridin-2-yl)-6,7-dihydro-1H-imidazo[4,5-c]pyridin-5(4H)-yl)(5-(pyrimidin-2-yl)-1,3,4-oxadiazol-2-yl)methanone] |
| 500 to 1000 | O=C(c1nnc(-c2ncccn2)o1)N1CCc2[nH]cnc2[C@H]1c1cc2c(C(F)F)cccn2n1 [Example 1413, (S)-(4-(4-(difluoromethyl)pyrazolo[1,5-a]pyridin-2-yl)-6,7-dihydro-1H-imidazo[4,5-c]pyridin-5(4H)-yl)(5-(pyrimidin-2-yl)-1,3,4-oxadiazol-2-yl)methanone] |
| < 500 | O=C(c1nnc(-c2cccnc2)o1)N1CCc2[nH]cnc2[C@H]1c1cc2c(C(F)F)cccn2n1 [Example 1422, (S)-(4-(4-(difluoromethyl)pyrazolo[1,5-a]pyridin-2-yl)-6,7-dihydro-1H-imidazo[4,5-c]pyridin-5(4H)-yl)(5-(pyridin-3-yl)-1,3,4-oxadiazol-2-yl)methanone] |
| 1000 to 5000 | COc1ccc(-c2nnc(C(=O)N3CCc4[nH]cnc4[C@@H]3c3cc4c(C(F)F)cccn4n3)o2)nc1 [Example 1425, (R)-(4-(4-(difluoromethyl)pyrazolo[1,5-a]pyridin-2-yl)-6,7-dihydro-1H-imidazo[4,5-c]pyridin-5(4H)-yl)(5-(5-methoxypyridin-2-yl)-1,3,4-oxadiazol-2-yl)methanone] |
| < 500 | O=C(c1nnc(-c2ncccc2F)o1)N1CCc2[nH]cnc2[C@H]1c1cc2c(C(F)F)cccn2n1 [Example 1426, (S)-(4-(4-(difluoromethyl)pyrazolo[1,5-a]pyridin-2-yl)-6,7-dihydro-1H-imidazo[4,5-c]pyridin-5(4H)-yl)(5-(3-fluoropyridin-2-yl)-1,3,4-oxadiazol-2-yl)methanone] |
| > 5000 | O=C(c1nnc(-c2ncccc2F)o1)N1CCc2[nH]cnc2[C@@H]1c1cc2c(C(F)F)cccn2n1 [Example 1427, (R)-(4-(4-(difluoromethyl)pyrazolo[1,5-a]pyridin-2-yl)-6,7-dihydro-1H-imidazo[4,5-c]pyridin-5(4H)-yl)(5-(3-fluoropyridin-2-yl)-1,3,4-oxadiazol-2-yl)methanone] |
